From ChEMBL document CHEMBL1649581, “Evaluation of target specificity of antibacterial agents using Staphylococcus aureus ddlA mutants and D-cycloserine in a silkworm infection model” (2009)
In brackets after ≈: the same amount, converted by molar mass.

Tests used:
Type in all cases: functional
[1] = test system: Staphylococcus aureus; assay: Antibacterial activity against Staphylococcus aureus RN4220 after 20 hrs; conditions: RN4220, 20 h
[2] = test system: Staphylococcus aureus; assay: Antibacterial activity against Staphylococcus aureus TS2921 harboring ddlA Asp102Asn mutation after 20 hrs; conditions: TS2921, 20 h
[3] = test system: Staphylococcus aureus; assay: Antibacterial activity against Staphylococcus aureus TS5337 harboring ddlA Pro178Ser mutation after 20 hrs; conditions: TS5337, 20 h
[4] = test system: Staphylococcus aureus; assay: Antibacterial activity against Staphylococcus aureus TS10007 harboring ddlA Asp39Asn mutation after 20 hrs; conditions: TS10007, 20 h
[5] = test system: Staphylococcus aureus; assay: Antibacterial activity against Staphylococcus aureus TS2921 harboring ddlA Asp102Asn mutation in presence of 100 mM D-Ala-D-Ala, which complements temperature sensitivity after 20 hrs; conditions: TS2921, 20 h
[6] = test system: Staphylococcus aureus; assay: Antibacterial activity against Staphylococcus aureus RN4220 in fifth-instar silkworm larva infection model assessed as compound concentration per gram of larva […] after 48 hrs post dose at 27 degC
[7] = test system: Staphylococcus aureus; assay: Antibacterial activity against Staphylococcus aureus TS2921 harboring ddlA Asp102Asn mutation in fifth-instar silkworm larva infection model assessed as compound concentration per gram of larva […] after 48 hrs post dose at 27 degC
[8] = test system: Staphylococcus aureus; assay: Antibacterial activity against Staphylococcus aureus TS10007 harboring ddlA Asp39Asn mutation in fifth-instar silkworm larva infection model assessed as compound concentration per gram of larva […] after 48 hrs post dose at 27 degC
[9] = test system: Staphylococcus aureus; assay: Antibacterial activity against Staphylococcus aureus TS2921 harboring ddlA Asp102Asn mutation and coexpressing pSddlA which complements temperature sensitivity after 20 hrs; conditions: TS2921, 20 h
[10] = test system: Staphylococcus aureus; assay: Antibacterial activity against Staphylococcus aureus TS5337 harboring ddlA Pro178Ser mutation in fifth-instar silkworm larva infection model assessed as compound concentration per gram of larva […] after 48 hrs post dose at 27 degC

O=C(N[C@H](CO)[C@H](O)c1ccc([N+](=O)[O-])cc1)C(Cl)Cl [CHLORAMPHENICOL]
MIC [1]: 6.3 µg/mL (≈ 19.5 µM)
MIC [2]: 3.1 µg/mL (≈ 9.59 µM)
MIC [3]: 3.1 µg/mL (≈ 9.59 µM)
MIC [4]: 3.1 µg/mL (≈ 9.59 µM)
MIC [5]: 3.1 µg/mL
ED50 [6]: 4.9 µg
ED50 [7]: 5.3 µg

N[C@@H]1CONC1=O [CYCLOSERINE]
ED50 [8]: <2.2 µg
MIC [1]: 100 µg/mL (≈ 979 µM)
MIC [2]: 12.5 µg/mL (≈ 122 µM)
MIC [3]: 25 µg/mL (≈ 245 µM)
MIC [4]: 50 µg/mL (≈ 490 µM)
MIC [9]: > 100 µg/mL
MIC [5]: 50 µg/mL
ED50 [6]: 40 µg
ED50 [7]: <2.2 µg
ED50 [10]: 5.4 µg

CO[C@@]1(NC(=O)CSC(F)F)C(=O)N2C(C(=O)O)=C(CSc3nnnn3CCO)CO[C@@H]21 [FLOMOXEF]
ED50 [8]: 0.048 µg
MIC [1]: 0.4 µg/mL (≈ 0.806 µM)
MIC [2]: 0.2 µg/mL (≈ 0.403 µM)
MIC [3]: 0.2 µg/mL (≈ 0.403 µM)
MIC [4]: 0.4 µg/mL (≈ 0.806 µM)
MIC [9]: 0.4 µg/mL (≈ 0.806 µM)
MIC [5]: 0.4 µg/mL
ED50 [6]: 0.054 µg
ED50 [7]: 0.031 µg
ED50 [10]: 0.031 µg

CCn1cc(C(=O)O)c(=O)c2cc(F)c(N3CCNCC3)cc21 [NORFLOXACIN]
MIC [1]: 0.63 µg/mL (≈ 1.97 µM)
MIC [2]: 0.63 µg/mL (≈ 1.97 µM)
MIC [3]: 0.63 µg/mL (≈ 1.97 µM)
MIC [4]: 0.63 µg/mL (≈ 1.97 µM)
MIC [9]: 0.63 µg/mL (≈ 1.97 µM)
MIC [5]: 0.63 µg/mL

CN(C)[C@@H]1C(O)=C(C(N)=O)C(=O)[C@@]2(O)C(O)=C3C(=O)c4c(O)cccc4[C@@](C)(O)[C@H]3C[C@@H]12 [TETRACYCLINE]
ED50 [8]: 0.35 µg
MIC [1]: 0.063 µg/mL (≈ 0.142 µM)
MIC [2]: 0.063 µg/mL (≈ 0.142 µM)
MIC [3]: 0.063 µg/mL (≈ 0.142 µM)
MIC [4]: 0.063 µg/mL (≈ 0.142 µM)
MIC [9]: 0.063 µg/mL (≈ 0.142 µM)
MIC [5]: 0.031 µg/mL
ED50 [6]: 0.68 µg
ED50 [7]: 0.7 µg
ED50 [10]: 0.75 µg

CN[C@H](CC(C)C)C(=O)N[C@H]1C(=O)N[C@@H](CC(N)=O)C(=O)N[C@H]2C(=O)N[C@H]3C(=O)N[C@H](C(=O)N[C@H](C(=O)O)c4cc(O)cc(O)c4-c4cc3ccc4O)[C@H](O)c3ccc(c(Cl)c3)Oc3cc2cc(c3O[C@@H]2O[C@H](CO)[C@@H](O)[C@H](O)[C@H]2O[C@H]2C[C@](C)(N)[C@H](O)[C@H](C)O2)Oc2ccc(cc2Cl)[C@H]1O [VANCOMYCIN]
ED50 [8]: 0.25 µg
MIC [1]: 0.4 µg/mL (≈ 0.276 µM)
MIC [2]: 0.4 µg/mL (≈ 0.276 µM)
MIC [3]: 0.4 µg/mL (≈ 0.276 µM)
MIC [4]: 0.4 µg/mL (≈ 0.276 µM)
MIC [9]: 0.4 µg/mL (≈ 0.276 µM)
MIC [5]: 1.6 µg/mL
ED50 [6]: 0.53 µg
ED50 [7]: 0.43 µg
ED50 [10]: 0.45 µg
